Reference: PMC10216263, “Favorable Preclinical Pharmacological Profile of a Novel Antimalarial Pyrrolizidinylmethyl Derivative of 4-amino-7-chloroquinoline with Potent In Vitro and In Vivo Activities” (Biomolecules, 2023)
Read-outs that look alike come from different tables or passages of the source.

Experiments:
[1] = tested on: Escherichia coli WP2 uvrA; experiment: Bacterial Reverse Mutation Assay; conditions: with metabolic activation
Experimental: (§3) using the preincubation method (30 min, 37°C) with and without phenobarbital-5,6-benzoflavone induced
(§4) MG3 was dissolved in distilled water (H2O) at
(§5) the maximum concentration of 40 mg/mL and tested in a preliminary range-finding test in all strains of
(§6) metabolic activation to determine the toxicity of the compound.

[2] = tested on: Salmonella typhimurium TA98; experiment: Bacterial Reverse Mutation Assay; conditions: TA 98, with metabolic activation
Experimental: as §3, §4, §5, §6

[3] = Tissue distribution in rat; format: in vivo, female Sprague Dawley rats; conditions: single oral 120 mg/kg
Experimental: Female Sprague Dawley rats (Charles River, Italy) (2–4/time points) were orally administered with a single dose of 120 mg/kg of MG3 at a constant dose volume of 10 mL/kg; dose and gender were selected based on previous toxicological studies. Two female rats were included as untreated controls. Plasma samples and tissues, i.e., adrenal glands, hearth, kidney, liver, lung, lymph nodes, spleen, ovaries, thymus, and skeletal muscle were collected at 4, 24, 48, 72 and 96 h after administration by animals killed by exsanguination under sodium thiopental anesthesia. Blood was put in heparinized plastic tubes kept on ice-water bath, then centrifuged (10 min, 1200 rpm, +4 °C). One aliquot of about 100 µL of plasma was stored at –80 °C until analysis. Samples of selected organs/tissues were collected, put in plastic cassettes and frozen over liquid nitrogen. Then, organs were thawed out, weighted, and sliced. Homogenates were prepared with ultrasonication on ice in Dulbecco buffer (10 μL/mg of tissue). The addition of 400 μL of methanol to 10 μL of homogenate in a 96-well plate allowed the precipitation of proteins. After capping and vortex mixing, the plate was centrifuged for 15 min at 3700 rpm at 6 °C, and an aliquot of 360 μL of supernatant transferred to a new plate and dried down under nitrogen stream (40 °C). The extract was reconstituted in 150 μL of 10 mM ammonium formate pH 3.5: methanol (90:10, v/v) and analyzed using the LC-MS-MS method, as described in Pharmacokinetic studies in rat paragraph. 1 ng/mL and 10 ng/g were the lower limits of quantitation for plasma and tissue, respectively.

[4] = tested on: P. falciparum field isolates; experiment: Chemosensitivity assay on field isolates; format: cell-based
Experimental: (§1) The 10 P. vivax and 10 P. falciparum isolates used in this study were obtained from Mae Sod District, Tak Province, Thailand. […] Isolates were collected in 5 mL lithium-heparinized tubes and sent to the laboratory within 5–6 h.

[5] = tested on: P. vivax field isolates; experiment: Chemosensitivity assay on field isolates; format: cell-based
Experimental: as §1

[6] = tested on: P. falciparum W2 (CQ-R); parameters: method as in PMID 18538567; conditions: 72 h incubation, pLDH method, mean of 3 experiments; cited from earlier work
[7] = tested on: P. falciparum TM90C2A (CQ-R); experiment: In vitro antimalarial activity, [3H]-hypoxanthine incorporation (LSHTM); format: cell-based; conditions: Plasmodium falciparum, 72 h, [3H]-hypoxanthine incorporation, mean of 3 experiments, read-out: P. falciparum IC50 nM, TM90C2A (CQ-R)
[8] = tested on: P. chabaudi AS; experiment: Four-day suppressive Peters' test, oral; format: in vivo, P. chabaudi in CD1 mice; conditions: once a day for 4 days, parasitemia day 4, CD1 mice
Experimental: (§2) Groups of five CD1 mice were inoculated i.v., with 4 × 10^6 infected erythrocytes/mice. Compounds, dissolved in standard suspending formula (SSV) (0.5% sodium carboxymethylcellulose, 0.5% benzyl alcohol, 0.4% Tween 80, and 0.9% NaCl), were administered once a day for 4 days via oral gavage, starting two hours post-infection. […] Parasitemia was evaluated using microscopic examination of Giemsa-stained blood films taken on day four, processed using MICROSOFT® EXCEL spreadsheets (Microsoft Corp., Redmond, WA, USA), and expressed as percentages of inhibition from the arithmetic mean parasitemia of each group in relation to the untreated group. ED50 and ED90 values were calculated using GraphPad Prism 6 (GraphPad Software Inc., La Jolla, CA, USA).

[9] = tested on: P. berghei ANKA; experiment: Four-day suppressive Peters' test, oral; format: in vivo, P. berghei in CD1 mice; conditions: once a day for 4 days, parasitemia day 4, CD1 mice
Experimental: as §2

[10] = tested on: P. falciparum K1 (CQ-R); experiment: In vitro antimalarial activity, [3H]-hypoxanthine incorporation (LSHTM); format: cell-based; conditions: Plasmodium falciparum, K1; 72 h, [3H]-hypoxanthine incorporation, mean of 3 experiments; read-out: P. falciparum IC50 nM, K1 (CQ-R)
[11] = in vivo; conditions: CD1, mouse, po, 10 mg/kg, AUClast
[12] = tested on: P. falciparum 3D7 (CQ-S); experiment: In vitro antimalarial activity, [3H]-hypoxanthine incorporation (LSHTM); format: cell-based; conditions: Plasmodium falciparum, 3D7; 72 h, [3H]-hypoxanthine incorporation, mean of 3 experiments; read-out: P. falciparum IC50 nM, 3D7 (CQ-S)
[13] = tested on: P. berghei ANKA; experiment: Oral curative activity against P. berghei ANKA; format: in vivo, P. berghei in mice
[14] = target: hERG K+ channel (Homo sapiens, UniProt Q12809); experiment: [3H]-astemizole binding assay in HEK293 cell membranes
Chain of hERG K+ channel (Q12809 whole entry): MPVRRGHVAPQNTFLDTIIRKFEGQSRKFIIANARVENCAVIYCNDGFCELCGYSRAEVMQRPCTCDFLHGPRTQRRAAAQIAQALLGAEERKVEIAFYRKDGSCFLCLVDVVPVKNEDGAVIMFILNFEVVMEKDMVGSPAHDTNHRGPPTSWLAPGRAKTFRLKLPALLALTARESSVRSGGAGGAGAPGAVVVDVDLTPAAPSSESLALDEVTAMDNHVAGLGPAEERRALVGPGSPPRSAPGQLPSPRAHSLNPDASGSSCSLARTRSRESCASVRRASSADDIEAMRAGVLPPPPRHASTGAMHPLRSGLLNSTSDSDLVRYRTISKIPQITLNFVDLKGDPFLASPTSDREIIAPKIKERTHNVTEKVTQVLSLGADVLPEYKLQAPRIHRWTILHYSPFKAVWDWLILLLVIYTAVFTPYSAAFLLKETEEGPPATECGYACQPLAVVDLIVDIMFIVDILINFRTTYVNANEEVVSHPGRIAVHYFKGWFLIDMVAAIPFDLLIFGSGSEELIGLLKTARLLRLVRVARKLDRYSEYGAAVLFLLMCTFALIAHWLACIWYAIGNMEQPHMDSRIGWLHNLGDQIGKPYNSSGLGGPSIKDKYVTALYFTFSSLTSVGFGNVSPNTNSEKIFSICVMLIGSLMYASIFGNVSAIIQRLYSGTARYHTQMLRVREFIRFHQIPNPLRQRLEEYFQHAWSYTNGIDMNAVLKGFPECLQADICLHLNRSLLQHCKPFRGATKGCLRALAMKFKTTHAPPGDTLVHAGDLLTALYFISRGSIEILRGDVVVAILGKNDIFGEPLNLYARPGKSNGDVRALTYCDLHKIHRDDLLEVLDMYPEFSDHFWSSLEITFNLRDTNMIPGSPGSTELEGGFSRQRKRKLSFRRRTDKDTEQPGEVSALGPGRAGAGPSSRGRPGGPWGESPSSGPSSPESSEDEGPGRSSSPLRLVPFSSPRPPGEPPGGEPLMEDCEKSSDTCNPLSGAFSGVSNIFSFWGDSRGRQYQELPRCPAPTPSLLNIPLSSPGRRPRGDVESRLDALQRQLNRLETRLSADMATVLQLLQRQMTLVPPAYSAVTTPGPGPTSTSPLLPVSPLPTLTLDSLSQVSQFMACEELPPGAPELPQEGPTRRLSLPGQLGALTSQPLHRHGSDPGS
Experimental: Methods for hERG interaction
Membranes were prepared from HEK293 cells stably transfected with the human ERG (ether-a-go-go related
gene; U04270) from Cytomix.
was used as radioligand. Non-specific binding was evaluated in the presence of an excess of 10 µM cold
The concentration-response curve was performed in a range from 0.03 to 30 µM (seven

For `Clc1ccc2c(NCC34CCCN3CCC4)ccnc2c1` [MG3, 7-Chloro-N-((hexahydro-1H-pyrrolizin-7a-yl)methyl)quinolin-4-amine], the “fold increase value (ratio treated/solvent revertant numbers)” value ([1]; I° Exp., 62.5 µg/plate) was 1.4, the “fold increase value (ratio treated/solvent revertant numbers)” value ([1]; I° Exp., 125 µg/plate) was 1.4 and the “fold increase value (ratio treated/solvent revertant numbers)” value ([1]; I° Exp., 250 µg/plate) was 1.5. For the same molecule, the “fold increase value (ratio treated/solvent revertant numbers)” value ([1]; I° Exp., 500 µg/plate) was 0.8, the “fold increase value (ratio treated/solvent revertant numbers)” value ([1]; I° Exp., 1000 µg/plate) was 0.7 and the “fold increase value (ratio treated/solvent revertant numbers)” value ([1]; Range finding, 1.95 µg/plate) was 1.0. For the same molecule, the “fold increase value (ratio treated/solvent revertant numbers)” value ([1]; Range finding, 3.9 µg/plate) was 0.9, the “fold increase value (ratio treated/solvent revertant numbers)” value ([1]; Range finding, 7.81 µg/plate) was 0.9 and the “fold increase value (ratio treated/solvent revertant numbers)” value ([1]; Range finding, 15.63 µg/plate) was 0.7. For the same molecule, the “fold increase value (ratio treated/solvent revertant numbers)” value ([1]; Range finding, 31.25 µg/plate) was 0.8, the “fold increase value (ratio treated/solvent revertant numbers)” value ([1]; Range finding, 62.5 µg/plate) was 0.7 and the “fold increase value (ratio treated/solvent revertant numbers)” value ([1]; Range finding, 125 µg/plate) was 0.9. For the same molecule, the “fold increase value (ratio treated/solvent revertant numbers)” value ([1]; Range finding, 250 µg/plate) was 0.7, the “fold increase value (ratio treated/solvent revertant numbers)” value ([1]; Range finding, 500 µg/plate) was 0.7 and the “fold increase value (ratio treated/solvent revertant numbers)” value ([1]; Range finding, 1000 µg/plate) was 0.8. The “fold increase value (ratio treated/solvent revertant numbers)” value ([2]; I° Exp., 1000 µg/plate) was 1.1, the “fold increase value (ratio treated/solvent revertant numbers)” value ([2]; I° Exp., 62.5 g/plate) was 1.1 and the “fold increase value (ratio treated/solvent revertant numbers)” value ([2]; I° Exp., 125 g/plate) was 1.2. The “fold increase value (ratio treated/solvent revertant numbers)” value ([2]; I° Exp., 250 g/plate) was 1.4, the “fold increase value (ratio treated/solvent revertant numbers)” value ([2]; I° Exp., 500 g/plate) was 1.5 and the “fold increase value (ratio treated/solvent revertant numbers)” value ([2]; Range finding, 1000 µg/plate) was 1.0. The “fold increase value (ratio treated/solvent revertant numbers)” value ([2]; Range finding, 1.95 g/plate) was 0.9, the “fold increase value (ratio treated/solvent revertant numbers)” value ([2]; Range finding, 3.9 g/plate) was 0.9 and the “fold increase value (ratio treated/solvent revertant numbers)” value ([2]; Range finding, 7.81 g/plate) was 1.5. The “fold increase value (ratio treated/solvent revertant numbers)” value ([2]; Range finding, 15.63 g/plate) was 1.2, the “fold increase value (ratio treated/solvent revertant numbers)” value ([2]; Range finding, 31.25 g/plate) was 1.0 and the “fold increase value (ratio treated/solvent revertant numbers)” value ([2]; Range finding, 62.5 g/plate) was 1.3. The “fold increase value (ratio treated/solvent revertant numbers)” value ([2]; Range finding, 125 g/plate) was 1.3, the “fold increase value (ratio treated/solvent revertant numbers)” value ([2]; Range finding, 250 g/plate) was 1.2 and the “fold increase value (ratio treated/solvent revertant numbers)” value ([2]; Range finding, 500 g/plate) was 1.2. The “tissues with the highest concentration” value [3] was “lungs and ovaries”, the “concentration in tissues versus plasma” value ([3]; all time points 4–96 h) was “higher than in plasma” and the “detected in all the analyzed tissues up to” value ([3]; post dose) was 96 h. The IC50 ([4]; Plasmodium falciparum, read-out: P. falciparum IC50 nM, Field Isolates, mean of 10 field isolates, Thai Burmese Border) was less than 15 nM, the IC50 ([4]; read-out: P. falciparum IC50 nM, Field Isolates, mean of 10 field isolates, Thai Burmese Border) was 20.9 nM and the “IC50 lower than that of CQ” value ([5]; P. vivax isolates) was 40%. The IC50 ([5]; Plasmodium vivax, read-out: P. vivax IC50 nM, Field Isolates) was 50.3 nM, the IC50 [6] was 28.9 nM and the IC50 [7] was 14.4 nM. The ED50 ([8]; Plasmodium chabaudi, 96 h, read-out: ED50 (95% CI) Mean) was 4.69 mg/kg, the “ED90 (95% CI) Mean” value [8] was 9.80 (8.86–10.6) mg/kg and the ED50 ([9]; Plasmodium berghei, 96 h, read-out: ED50 (95% CI) Mean) was 5.22 mg/kg. For the same molecule, the “ED90 (95% CI) Mean” value [9] was 7.55 (6.38–8.72) mg/kg, the IC50 [10] was 21.2 nM and the AUC(0-t) [11] was 1030 ng·h/mL. For the same molecule, the IC50 [12] was 12.6 nM, the “prolonged mice survival compared to CQ, amodiaquine or artesunate” value ([13]; 30 mg/kg for 3 times) was “approximately 50%” and the curative activity ([13]; 30 mg/kg for 3 times, P. berghei-infected mice) was “not curative”. For the same molecule, the “% Suppression of parasitaemia (on day 4 post infection)” value ([13]; oral dose 3 x 30 mg/kg) was 100%, the “Average survival (days) after infection” value ([13]; oral dose 3 x 30 mg/kg, individual values in brackets) was 22 (17, 23, 23, 24, 24) days and the Ki [14] was 553 ± 45 nM.
